Patent US20230346827A1 (priority 2020, published 2023)

What was measured:
Mouse cortical neurons = assay: Gene expression array and pathway analysis, cortical neurons, LMW-DS 0.01 mg/ml 48 h; type: cell-based; details: for number of genes: abolished nutrient effect / number of genes: new effect induced by LMW-DS / number of genes: total / number of genes: enhanced response to nutrients / number of genes: not different from control: cortical neurons
Procedure: For each cell line, n=8 × 25 cm^2 culture flasks were set up. Two flasks were harvested for each cell type on the day of treatment (24 hours after seeding). This represents the Day0 time point. From the remaining flasks, three flasks were treated with Control Medium and three were treated with Culture Medium (CM) containing LMW-DS to give a final concentration of 0.01 mg/ml. Cells from the treated flasks were collected after 48 hours. Therefore the collected data represent (a) untreated cells (Day0 Controls and Day2 Controls) and (b) cells treated with LMW-DS (ILB®, Tikomed AB, Viken, Sweden, WO 2016/076780) for 48 hours (Day2 LMW-DS treated).
Medium was prepared by adding 10 ml B-27 Serum-Free Supplement and 2.5 ml GlutaMAX™-1 Supplement to 500 ml of Neurobasal medium. The medium was pre-warmed to 37° C. Cells from 12 vials were thawed sequentially in a 37° C. water bath for no longer than 2 min and gently transferred into a 15 ml tube. 9 ml of medium was gently added drop-wise to each. The cell suspension was mixed by inverting the tubes carefully twice.
The cells were centrifuged for 5 minutes at 200 x g. Supernatant was removed (to the last 0.5 ml) and cells were gently re-suspended by trituration. The cells from the 12 vials were mixed and distributed equally into the previously coated 25 cm^2 flasks (n=8). Cells were incubated at 37° C. with 5% CO2 for 24 hours.
LMW-DS was provided at a stock concentration of 20 mg/ml and was kept in a temperature monitored refrigerator at 4° C. A fresh 100x LMW-DS stock (1.0 mg/ml) was prepared in sterile DMEM-F12. The concentrated drug stock was sterile filtered and added to the respective culture media (19.6 ml CM and 0.4 ml LMW-DS stock solution). The Control was made using 19.6 ml CM and 0.4 ml of DMEM-F12. LMW-DS and CM were added to the respective flasks (5 ml each) to reach the 0.01 mg/ml concentration of LMW-DS in each dish with a total of 10 ml CM each.
CM was aspirated into a clean and labelled 15 ml Falcon tube. The flasks (without culture medium) were placed into the -80° C. freezer for 30 minutes. The CM in the Falcon tubes was spun at 3000 x g for 5 minutes. Supernatant was removed and the small pellet was re-suspended in 2.5 ml Trizol:Water (4:1) solution at room temperature (RT, ~22° C.).
Two aliquots of 1 ml lysate were removed from each sample and 200 µl of chloroform was added to each (0.2 ml of chloroform per 1 ml of TRIzol Reagent used during the cell lysis step) and the tube was shaken vigorously. Samples were stored at RT for 2-3 minutes and subsequently centrifuged at 12,000 x g for 15 minutes at 4° C.
The RNA was precipitated from the aqueous phase by adding an equal amount of 100% ethanol. The precipitated RNA was fixed onto a Spin Cartridge, washed twice and dried. The RNA was eluted in 50 µl warm RNase-Free Water. The amount and quality of the purified RNA was measured by Nanodrop. The RNA was stored at -80° C. before transfer to Source Bioscience for Array analysis.
The expression data were downloaded into separate files for each cell line. The ‘Background corrected’ expression is the data from the “gProcessedSignal” of the arrays that is the result of the background signal extracted from the actual signal of the relevant probe. This is the most often used variable in array analysis. The background corrected signal was log2 transformed for all samples for statistical analysis. To reduce the false discovery rate in the samples, the signals that were below ‘expression level’ were removed. The ‘below expression’ level was set at 5 for the log2 transformed expression values.
Based on the expression pattern of the Control probes on each array it was decided to carry out Median Centering for all arrays before analysis to reduce the variability of the results. […]

human PBMC = assay: Stimulated IL-6 release from human PBMC (ELISA); type: cell-based; details: 24 h
Procedure: Peripheral blood mononuclear cells (PBMC) were isolated from healthy donors through Ficoll-Paque PLUS (GE Healthcare; 11778538) density centrifugation. PBMC were cultured at 2×10^5 cells/well in the absence (unstimulated PBS vehicle controls) or presence of stimulation (LPS, peptidoglycan, pokeweed mitogen, PHA-L, CpG + IL-15, or Cytostim) in the absence (vehicle) or presence of LMW-DS (Tikomed AB, Viken, Sweden, WO 2016/076780) at three concentrations; 60 µg/ml, 200 µg/ml and 600 µg/ml for 24 hours at 37° C., 5% CO2. Following centrifugation, cell culture supernatants were removed and stored at -20° C. awaiting analysis for IL-6 by ELISA. Levels of IL-6 were quantified in the supernatant by ELISA (R&D systems; DY206) according to manufacturer’s instructions.

SARS-CoV-2 = details: incubation of SARS-CoV-2 with exogenous LMW-DS; cited from earlier work
[1] = pathway analysis of gene expression

In the case of sodium salt of dextran sulfate [LMW-DS], the “number of differentially expressed genes” value (Mouse cortical neurons; D0 control to D2 LMW-DS treated) is reported as 609, the “number of differentially expressed genes” value (Mouse cortical neurons; D0 control to D2 LMW-DS treated (second statement)) is reported as 247 and the “number of genes: abolished nutrient effect” value (Mouse cortical neurons; no effect) is reported as 572. The “number of genes: new effect induced by LMW-DS” value (shortened to “number of genes … by LMW-DS”) (Mouse cortical neurons; no effect) was 19, the “number of genes: total” value (Mouse cortical neurons; no effect) was 591 and the “number of genes: abolished nutrient effect” value (Mouse cortical neurons; significant downregulation) was 7. The “number of genes: enhanced response to nutrients” value (from here on “number of genes … to nutrients”) (Mouse cortical neurons; significant downregulation) was 158, the “number of genes … by LMW-DS” value (Mouse cortical neurons; significant downregulation) was 22 and the “number of genes: not different from control” value (“number of genes: not different” for short) (Mouse cortical neurons; significant downregulation) was 95. The “number of genes: total” value (Mouse cortical neurons; significant downregulation) was 282, the “number of genes: abolished nutrient effect” value (Mouse cortical neurons; significant upregulation) was 33 and the “number of genes … to nutrients” value (Mouse cortical neurons; significant upregulation) was 43. The “number of genes … by LMW-DS” value (Mouse cortical neurons; significant upregulation) was 7, the “number of genes: not different” value (Mouse cortical neurons; significant upregulation) was 221 and the “number of genes: total” value (Mouse cortical neurons; significant upregulation) was 304. The “number of genes: abolished nutrient effect” value (Mouse cortical neurons; total) was 612, the “number of genes … to nutrients” value (Mouse cortical neurons; total) was 612 and the “number of genes … by LMW-DS” value (Mouse cortical neurons; total) was 48. The “number of genes: not different” value (Mouse cortical neurons; total) was 316, the “number of genes: total” value (Mouse cortical neurons; total) was 1177 and the “deleterious effects of oxidative stress (amyloid-β and Lewy body pathology, mitochondrial dysfunction)” value (Mouse cortical neurons; [1]) was “prevent and reverse”. For the same substance, the glutamate production (Mouse cortical neurons; [1]) was “did not alter”, the IL-6 release (human PBMC; CpG 0.2 µM + IL-15, LMW-DS 60-600 µg/ml) was “not generally impacted” and the IL-6 release (human PBMC; Cytostim 10 µl/ml, LMW-DS 60-600 µg/ml) was “not generally impacted”. The IL-6 release (human PBMC; LPS 0.01 ng/ml, LMW-DS 60, 200, 600 µg/ml) was “concentration dependent and statistically significant reduction”, the IL-6 release (human PBMC; PHA-L 1.0 µg/ml, LMW-DS 60-600 µg/ml) was “inhibited significantly in a concentration-dependent manner” and the IL-6 release (human PBMC; higher concentration of CpG (1.0 µM) + IL-15, LMW-DS 60-600 µg/ml) was “no general impact”. The IL-6 release (human PBMC; higher concentration of Cytostim (30 µl/ml), LMW-DS 60-600 µg/ml) was “no general impact”, the IL-6 release (human PBMC; peptidoglycan 30 ng/ml, LMW-DS 60-600 µg/ml) was “little evidence” and the IL-6 release (human PBMC; pokeweed mitogen 1.0 µg/ml, LMW-DS 60-600 µg/ml) was “not impacted generally”. The “SARS-CoV-2 attachment to human epithelial cell lines” value (SARS-CoV-2) was “reduces attachment”.
